Source: PubChem BioAssay AID330 (DTP/NCI, 2004)
“And” between values parts separate entries of the source, which are not always exact repeats. Equal values may be shown once. Toxic doses and inconclusive results are not listed.

System: P388 leukemia ip, CD2F1 mice, survival T/C
Assay: NCI In Vivo Anticancer Drug Screen. Data for tumor model P388 Leukemia (intraperitoneal) in CD2F1 (CDF1) mice
Conditions: endpoint: median survival time, higher = longer survival
Outline: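 Mice carrying the transplanted tumor received test compound or vehicle. Survival was recorded in each group, and the value is the treated-group measurement divided by that of the vehicle-treated control group.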

`COc1ccc(C(C)c2cc3c(cc2O)OCO3)cc1` (stereo not drawn) was tested, and the T/C (dose: 50.0 mg/kg/injection, schedule: Q01DX005 (ip), vehicle: distilled water + Tween-80) was 105 % of control, the T/C (dose: 100.0 mg/kg/injection, schedule: Q01DX005 (ip), vehicle: distilled water + Tween-80) was 99 % of control and the T/C (dose: 200.0 mg/kg/injection, schedule: Q01DX005 (ip), vehicle: distilled water + Tween-80) was 108 % of control.
`C[n+]1c(SCC(=O)O)sc2ccccc21` was tested, and the T/C (dose: 12.5 mg/kg/injection, schedule: Q01DX009 (ip), vehicle: saline) was 99 % of control, the T/C (dose: 25.0 mg/kg/injection, schedule: Q01DX009 (ip), vehicle: saline) was 104 % of control and the T/C (dose: 50.0 mg/kg/injection, schedule: Q01DX009 (ip), vehicle: saline) was 108 % of control and 122 % of control.
For `CN1C(=O)N(C)C2(C(=O)c3cccc4cccc2c34)C1=O` (stereo not drawn), the T/C (dose: 50.0 mg/kg/injection, schedule: Q01DX009 (ip), vehicle: distilled water + alcohol) was 100 % of control, the T/C (dose: 100.0 mg/kg/injection, schedule: Q01DX009 (ip), vehicle: distilled water + alcohol) was 94 % of control and the T/C (dose: 200.0 mg/kg/injection, schedule: Q01DX009 (ip), vehicle: distilled water + alcohol) was 100 % of control.
With `COc1cc2c(cc1OC)CN1CCc3cc(OC)c(OC)cc3[C@@H]1C2` the T/C (dose: 12.5 mg/kg/injection, schedule: Q01DX005 (ip), vehicle: saline with Tween-80) was 100 % of control, the T/C (dose: 25.0 mg/kg/injection, schedule: Q01DX005 (ip), vehicle: saline with Tween-80) was 102 % of control and the T/C (dose: 50.0 mg/kg/injection, schedule: Q01DX005 (ip), vehicle: saline with Tween-80) was 104 % of control and 98 % of control.
In the case of `CCOC(=O)Nc1cc(NC/C(=N\O)c2ccc3ccccc3c2)c([N+](=O)[O-])c(N)n1`, the T/C (dose: 60.0 mg/kg/injection, schedule: Q01DX005 (ip), vehicle: Klucel (hydroxypropylcellulose) (HPC)) was 100 % of control, the T/C (dose: 120.0 mg/kg/injection, schedule: Q01DX005 (ip), vehicle: Klucel (hydroxypropylcellulose) (HPC)) was 100 % of control and the T/C (dose: 240.0 mg/kg/injection, schedule: Q01DX005 (ip), vehicle: Klucel (hydroxypropylcellulose) (HPC)) was 96 % of control.
With `COc1ccc2nc3cc(Cl)ccc3c(NC(C)CCCN(C)C)c2n1` (stereo not drawn) the T/C (dose: 50.0 mg/kg/injection, schedule: Q01DX005 (ip), vehicle: saline) was 102 % of control and the T/C (dose: 100.0 mg/kg/injection, schedule: Q01DX005 (ip), vehicle: saline) was 110 % of control.
For `CCCCC#CC(=O)OCC`, the T/C (dose: 60.0 mg/kg/injection, schedule: Q01DX005 (ip), vehicle: saline with Tween-80) was 101 % of control, the T/C (dose: 120.0 mg/kg/injection, schedule: Q01DX005 (ip), vehicle: saline with Tween-80) was 106 % of control and the T/C (dose: 240.0 mg/kg/injection, schedule: Q01DX005 (ip), vehicle: saline with Tween-80) was 113 % of control.
For `c1cc2cc(-c3ccc4cc(-c5ccc6oc(C7=NCCN7)cc6c5)[nH]c4c3)[nH]c2cc1C1=NCCN1`, the T/C (dose: 50.0 mg/kg/injection, schedule: Q01DX005 (ip), vehicle: Klucel (hydroxypropylcellulose) (HPC)) was 156 % of control, the T/C (dose: 100.0 mg/kg/injection, schedule: Q01DX005 (ip), vehicle: Klucel (hydroxypropylcellulose) (HPC)) was 114 % of control and the T/C (dose: 200.0 mg/kg/injection, schedule: Q01DX005 (ip), vehicle: Klucel (hydroxypropylcellulose) (HPC)) was 91 % of control.
